Test results as given in patent US20190010524A1, “BIOLOGICAL METHODS FOR PREPARING A FATTY DICARBOXYLIC ACID” (Verdezyne, Inc., priority 2012, published 2019).

Key:
[1] = tested on: Candida tropicalis strain (sAA496); assay: Fermentation of coconut oil to mixed diacids at different pH; format: cell-based; conditions: coconut oil 80 g/L, 140 hours
Description: Autoclaved virgin coconut oil was added to the vessel to a final concentration of 80 g/L. A partially beta-oxidation blocked Candida tropicalis strain (sAA496) was inoculated to an initial OD600nm of 1.0 with a 5% inoculum and grown under the following conditions: 30° C. with shaking at about 1200 rpm, 1 vvm, initial pH 6.5 and initial volume of 1.0 L. The effect of pH on the distribution of fatty acid chain lengths was determined by manipulating the pH of the fermentation media. The pH of the fermentation was either 1) increased to pH 7.5 and controlled at that pH for the entire run, 2) allowed to drop-naturally due to the growth of the culture before controlling at pH 6.0 for the rest of the run; or 3) allowed to drop naturally due to the growth of the culture before controlling at pH 4.5 for the rest of the run. Samples were collected for GC analysis after 140 hours of fermentation time.

[2] = tested on: strain sAA1082; assay: Production of DDDA from ethyl laurate or methyl laurate feedstock (Example 67); format: cell-based, Candida
Description: Methyl laurate feed rates varied as follows: 0.75 g/L-h for the first 24 h; 1.2 g/L-h from 24 h to termination. Ethyl laurate was fed at a rate of 0.75 gL-h for the first 24 h; 1.28 g/L-h from 24 h to termination. […] Also at induction a co-feed of dextrose was fed at a rate of either 1.25 g/L-h or 0.9 g/L-h. In TABLE 35, data from these two ethyl laurate fermentations were compared to similar data obtained from methyl laurate fermentations run under the same conditions.

[3] = tested on: Candida strain ATTC 20962; assay: Shake flask bioconversion of feedstocks of varying chain length (Example 72); format: cell-based; conditions: ethyl esters 1% v/v, alkanes 3% v/v
Description: (§1) The bioconversion tests in this Example were undertaken following a shake flask protocol. […] The YPD contained 10 g/L yeast extract, 20 g/L peptone, and 20 g/L dextrose. These cultures were then placed in a 30° C. shaking incubator at 250 rpm for 18 to 20 hours.
(§2) After this growth phase, these cultures were used to inoculate 350 ml of SP92-glycerol media dispensed into 10-250 ml wide mouth flasks in 35 ml aliquots for each strain. The SP92-glycerol media contained 6.7 g/L yeast nitrogen base, 3 g/L yeast extract, 3 g/L ammonium sulfate, 1 g/L potassium phosphate monobasic; 1 g/L potassium phosphate, dibasic, and 75 g/L glycerol (Picataggio S., et al., Biotechnology (NY) 1992 August; 10 (8):894-8). The cultures were then placed in a 30° C. shaking incubator at 300 rpm for 20 to 24 hours.
(§3) The cells were then centrifuged for 5 minutes at 3000 rpm and the supernatant discarded. The cells were resuspended in DCA3 medium supplemented with 1.0% triton-X100. DCA3 is a 0.3 M potassium phosphate buffer, pH 7.5 containing 6.7 g/L yeast nitrogen base and 50 g/L glycerol. Variations of DCA3 media recipes are known, non-limiting examples of which include the addition of dextrose and/or glycerol, the like or combinations thereof. DCA3 media, as referred to herein, can include dextrose and/or glycerol. After re-suspension, the OD600 nm for each culture was adjusted to a common OD (based on the available OD for the strain with the least growth) and 10 ml was transferred to pre-weighed 250 ml bottom baffled shake flasks. The flasks were then reweighed to determine the starting weight of the culture. The substrate to be converted was then added at 1% v/v for ethyl esters and 3% v/v for alkanes. The increased amount of alkanes added was due to their volatility to ensure that sufficient substrate remained in solution for bioconversion. The flasks were weighed once more to determine the exact amount of substrate added to each flask and were then placed, in a 30° C. shaking incubator at 300 rpm for 4 hours. Bioconversion tests for ethyl-stearate and ethyl palmitate were performed at 35° C. due to melting point limitations for these substrates.
(§4) After 48 hours, the flasks were weighed once more to determine the weight of the final culture. The cultures were mixed well by swirling and 1 ml was transferred to a pre-weighed 15 ml falcon tube containing 0.8 ml of 6N HCl. The tube was weighed to determine the density of the final culture and this number used to determine the culture volume present at the final time point. Samples were submitted to analytical for analysis by GC.

[4] = tested on: sAA1082; assay: as above; format: cell-based, Candida; conditions: for Feedstock Yield (g diacid/g added feedstock) sAA-1082: shake flask, ethyl esters 1% v/v, alkanes 3% v/v
Description: as §1, §2, §3, §4

[5] = tested on: sAA2178; assay: as above; format: cell-based, Candida; conditions: for Feedstock Yield (g diacid/g added feedstock) sAA-2178: shake flask, ethyl esters 1% v/v, alkanes 3% v/v
Description: as §1, §2, §3, §4

[6] = dextrose co-feed rate 0.9 g/L-h
[7] = dextrose co-feed rate 1.25 g/L-h

| Structure (SMILES) | Diacid composition (fraction of total diacids) ([1]; pH 4.5) | Diacid composition (fraction of total diacids) ([1]; pH 6.0) | Diacid composition (fraction of total diacids) ([1]; pH 7.5) | Feedstock Yield (g diacid/g added feedstock) ATTC-20962 [3] | % improvement over ATTC 20962 sAA-1082 [4] [%] | Feedstock Yield (g diacid/g added feedstock) sAA-1082 [4] | % improvement over ATTC 20962 sAA-2178 [5] [%] | Feedstock Yield (g diacid/g added feedstock) sAA-2178 [5] | further results |
| --- | --- | --- | --- | --- | --- | --- | --- | --- | --- |
| O=C(O)CCCCC(=O)O [Adipic Acid] | 0.32 | 0.12 | 0.05 |  |  |  |  |  |  |
| O=C(O)CCCCCCCCCCC(=O)O [C12 Diacid, dodecanedioic acid] | 0.00 | 0.03 | 0.16 |  |  |  |  |  |  |
| CCCCCCCCCCCC(=O)OCC [Ethyl Laurate] |  |  |  |  |  |  |  |  | HFA [2, 6]: 2.48 g/L; Lauric Acid [2, 6]: 2.00 g/L; Productivity (g/L-h) [2, 6]: 0.832 g/L-h; HFA [2, 7]: 1.64 g/L; Lauric Acid [2, 7]: 0.71 g/L; Productivity (g/L-h) [2, 7]: 0.879 g/L-h; improvement in productivity over the methyl laurate fermentation with similar co-feed rate ([2]; higher dextrose feed): about 6% |
| CCCCCCCCCCCCCCCC(=O)OCC [Ethyl palmitate] |  |  |  | 0.059 g diacid/g added feedstock | 41.8 | 0.084 g diacid/g added feedstock | 51.2 | 0.090 g diacid/g added feedstock |  |
| CCCCCCCCCCCCCCCCCC(=O)OCC [Ethyl stearate] |  |  |  | 0.074 g diacid/g added feedstock | 14.5 | 0.085 g diacid/g added feedstock | 92.7 | 0.143 g diacid/g added feedstock |  |
| CCCCCCCCCCCCCC(=O)OCC [Ethyl tetradecanoate] |  |  |  | 0.347 g diacid/g added feedstock | 16.5 | 0.404 g diacid/g added feedstock | 28.1 | 0.444 g diacid/g added feedstock |  |
| CCCCCCCCCCCC(=O)OC [Methyl Laurate] |  |  |  |  |  |  |  |  | HFA [2, 6]: 3.31 g/L; Lauric Acid [2, 6]: 8.36 g/L; Productivity (g/L-h) [2, 6]: 0.638 g/L-h; HFA [2, 7]: 3.83 g/L; Lauric Acid [2, 7]: 3.88 g/L; Productivity (g/L-h) [2, 7]: 0.832 g/L-h |
| O=C(O)CCCCCCCCC(=O)O [Sebacic Acid] | 0.00 | 0.10 | 0.17 |  |  |  |  |  |  |
| O=C(O)CCCCCCC(=O)O [Suberic Acid] | 0.68 | 0.75 | 0.62 |  |  |  |  |  |  |
